In patent US12263155B2, “Combinations of monoamine oxidase inhibitors and serotonin receptor agonists and their therapeutic use” (Remedi, Inc., priority 2022, dated 2025):

Key:
[1] = target: T1, Oxidase MAO-B Peripheral (Rattus norvegicus, UniProt P19643); experiment: NovaScreen ligand-binding screen, MAO-B; settings: 10.0 nM and 100 nM
T1 construct: purchased NovaScreen
T1 sequence (P19643 1-520): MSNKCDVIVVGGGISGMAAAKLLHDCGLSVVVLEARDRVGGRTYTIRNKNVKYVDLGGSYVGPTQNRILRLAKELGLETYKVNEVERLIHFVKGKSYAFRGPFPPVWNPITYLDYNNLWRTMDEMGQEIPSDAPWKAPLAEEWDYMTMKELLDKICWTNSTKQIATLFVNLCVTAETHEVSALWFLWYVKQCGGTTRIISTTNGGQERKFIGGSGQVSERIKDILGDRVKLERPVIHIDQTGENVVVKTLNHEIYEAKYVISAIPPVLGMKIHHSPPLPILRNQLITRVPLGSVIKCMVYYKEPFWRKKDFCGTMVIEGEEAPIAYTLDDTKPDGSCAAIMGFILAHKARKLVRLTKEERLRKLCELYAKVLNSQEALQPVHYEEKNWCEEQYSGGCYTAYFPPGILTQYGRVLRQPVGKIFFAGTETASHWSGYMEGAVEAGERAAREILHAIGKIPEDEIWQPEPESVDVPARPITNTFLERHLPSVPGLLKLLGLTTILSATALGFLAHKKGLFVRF
Protocol: Methods: Investigational drug candidates CX157 were analyzed in NovaScreen's bank of ligand-binding reactions to test for specificity. CX157 was screened at concentrations of both 10.0 nM and 100 nM as potential competitors in binding reactions involving nine classes containing 69 binding sites. The following binding reactions are tested: Adenosine Non-selective, Adrenergic Alpha 1 Non-selective, Adrenergic Alpha 2 Non-selective, Adrenergic Beta Non-selective, Dopamine Transporter, Dopamine Non-selective, GABA A Agonist Site, GABA A BDZ alpha 1 site, GABA B, Glutamate AMPA Site (Ionotropic), Glutamate Kainate Site (Ionotropic), Glutamate NMDA Agonist Site (Ionotropic), Glutamate NMDA Glycine (Stry-insens Site) (Ionotrophic), Glycine Strychnine-sensitive, Histamine H1, Histamine H2, Histamine H3, Melatonin Non-selective, Muscarinic M1 (hr), Muscarinic M2 (hr), Muscarinic Non-selective Central, Muscarinic Non-selective Peripheral, Nicotinic (α-BnTx insensitive) Neuronal, Norepinephrine Transporter, Opioid Non-selective, Orphanin (hr), Serotonin Transporter, Serotonin Non-selective, Sigma Non-selective, Estrogen, Testosterone (cytosolic), Calcium Channel Type L (Dihydropyridine Site), Calcium Channel Type N, Potassium Channel ATP-Sensitive, Potassium Channel Ca2+ Act. VI, Potassium Channel I[Kr]

[2] = target: T2, rat brain MAO-A (Rattus norvegicus, UniProt P21396); experiment: In vitro inhibition of rat brain MAO-A; assay type: biochemical
T2 construct: prepared from brain homogenates of male Sprague-Dawley rats, served as the source of MAO-A enzymatic activity; from tissue
T2 sequence (P21396 1-526): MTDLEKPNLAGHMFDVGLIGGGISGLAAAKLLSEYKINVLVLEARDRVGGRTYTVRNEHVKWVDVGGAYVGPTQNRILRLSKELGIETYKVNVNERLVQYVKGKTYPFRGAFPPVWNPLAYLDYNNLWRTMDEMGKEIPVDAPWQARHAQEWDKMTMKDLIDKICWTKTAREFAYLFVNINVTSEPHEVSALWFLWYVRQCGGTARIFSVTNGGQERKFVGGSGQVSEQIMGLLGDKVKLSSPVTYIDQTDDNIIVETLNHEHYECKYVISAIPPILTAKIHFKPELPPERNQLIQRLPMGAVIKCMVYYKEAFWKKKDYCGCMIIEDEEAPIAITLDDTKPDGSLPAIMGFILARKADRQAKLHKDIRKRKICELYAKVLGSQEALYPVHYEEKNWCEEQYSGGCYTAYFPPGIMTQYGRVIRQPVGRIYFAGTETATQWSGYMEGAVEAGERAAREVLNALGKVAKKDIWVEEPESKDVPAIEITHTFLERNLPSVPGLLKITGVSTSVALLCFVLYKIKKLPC
Protocol: (§1) Methods: The soluble extract of the mitochondrial enriched fraction (P2 pellet), which was prepared from brain homogenates of male Sprague-Dawley rats, served as the source of MAO-A enzymatic activity. The P2 fraction was prepared and was stored frozen until being thawed for use on the day of assay. Final concentrations of 50 μM [^14C]-serotonin (5-HT) and 10 μM [^14C]-phenylethylamine (PEA) were employed as specific substrates for MAO-A and MAO-B, respectively. Test compound inhibition was based on competition for oxidation of these radio-labeled substrates. MAO-A assay specificity was enhanced by inclusion of 0.1 μM deprenyl to prevent substrate oxidation by MAO-B. Likewise, MAO-B assays included 0.1 μM clorgyline to block MAO-A activity. […] Inhibition of enzymatic activities was expressed as IC50 and as the Ki, which was calculated using the Cheng-Prusoff equation.

[3] = target: T3, rat brain MAO-B (Rattus norvegicus, UniProt P19643); experiment: In vitro inhibition of rat brain MAO-B; assay type: biochemical; settings: 10 μM [14C]-PEA, all concentrations tested
T3 construct: from tissue; host or cells: rat brain
T3 sequence (P19643 1-520): T1 sequence (P19643 1-520)
Protocol: as §1

## O=S1(=O)c2ccc(F)cc2Oc2cc(OCC(F)(F)F)ccc21 [CX157, 3-fluoro-7(2,2,2-trifluorethoxy)phenoxathiine-10,10-dioxide]
[1]
  binding to MAO-B: did not bind to MAO-B
[2]; Brain MAO-A
  Ki for CX157/Ki for RO-41-1049: 0.006
[2]; rat brain MAO-A
  Ki fold lower than reference compound RO 41-1049: > 10 fold
[2]; rat brain P2 extract, 50 μM [14C]-5-HT
  IC50: 90 pM
[2]; rat brain, Cheng-Prusoff
  Ki: 90 pM
[3]
  inhibition of rat brain MAO-B: did not inhibit
